# Article PMC8231113, “Protein Secondary Structure Affects Glycan Clustering in Native Mass Spectrometry” (Life, 2021)
# How the values were obtained:
# [1] = biological target: T1, L-lactic dehydrogenase from rabbit muscle (LDH) (Oryctolagus cuniculus, UniProt P13491); assay: Native MS glycan clustering to reference protein LDH; type: binding; settings: on LDH
# T1 construct: L-lactic dehydrogenase from rabbit muscle (LDH, CAS number 9001-60-9); purchased Sigma-Aldrich (Merck, Germany); host or cells: rabbit muscle
# Procedure: (§1) Prior to MS analysis, purified P dimers were buffer exchanged to 150 mM ammonium acetate (Sigma-Aldrich, reagent grade ≥98%) at pH 7 via centrifugal filter units at 12,000× g at 4 °C (Vivaspin 500, MWCO 10000, Sartorius). Glycans for native MS analysis were mixed with 1 µM (per monomer) purified GII.4 Saga P dimer and 3 µM of the reference proteins at indicated concentrations. Native mass spectra were measured at room temperature in positive ion mode on a high mass modified LCT Premier mass spectrometer (Waters/Micromass, UK and MS Vision, the Netherlands) with a nano-ESI source. In house-made gold-coated electrospray capillaries were used for direct-sample infusion without any accessory chromatographic separation. The voltages and pressures were optimized for non-covalent protein complexes. The gas pressure used in the source hexapole was set between 6.5 and 6.8 × 10^−2 mbar argon optimized for minimal complex dissociation and the backing pressure of the source roughing pump was set between 7.0 and 8.5 mbar. Spectra were recorded with applied voltages for the capillary and cone of 1.20 kV and 240 V, respectively. Note that charge state distributions for P dimers were sometimes slightly shifted as was the degree of glycan clustering per charge state. These changes were highly variable and not quantifiable.
# (§2) For calibration of the raw data, a 25 mg/mL cesium iodide spectrum from the same day was used. MassLynx V4.1 (Waters, Manchester, UK) was used to assign peak series to protein species and to determine the mass after minimal smoothing. Furthermore, OriginPro 2016 SR2 (OriginLab, Northampton, MA, USA) was used for spectral deconvolution and curve fitting. Correction for nonspecific protein-ligand clustering was performed as described. Corrected peak areas were averaged and normalized to the free-protein signal. Data were based on at least three independent measurements. Python code Panda and Numpy package were used to calculate the specific binding of P dimers according to the glycan clustering ratio obtained from the selected reference protein candidates. Seaborn and matplotlib.pyplot package were imported into a python script to plot the results. The module of sklearn.linear model was applied for linear regression. The matplotlib and heatmap package were used to plot the heatmap.
# (§3) Theoretically, the KD is calculated by measuring the concentration of the three components (Pfree, Lfree, PL) in solution. Usually, these values are only indirectly accessible because they require ligand titration up to binding saturation. However, native MS allows for the directly measurement of Pfree and PL, from which Lfree can be calculated using the input concentrations. In the present work, the non-covalent interaction was measured in the gas phase assuming identical ESI and detection efficiency for free and glycan-associated proteins, both for the analyte and the reference protein. […] For P dimers, the equations reflect glycan binding to the individual monomers assuming that binding sites on each monomer are equal and independent.
# Using R described in Equation (3), the KD calculation can be re-written into Equation (4) with the known initial concentration of glycan ligand [L0] and protein [P0], adapted from Sun et al.:(3) R=PLequil∕Pequil=∑nA(PL^n+)∕n∕∑nA(P^n+)∕n (4) KD =L0−RP0/1+R/R
# For the carbohydrate-binding experiments, it was essential to keep the initial protein concentrations and pH value constant during the analysis of the protein-carbohydrate solutions. While acidification occurs in any ESI droplet, the remaining solution in the capillary changes pH over time. Therefore, accumulated spectra were obtained within 10 min after the voltages were applied to minimize the influence of pH changes during the measurements. […]
# [2] = system: mutated hNoV GII.4 MI001 P dimer; assay: Native MS corrected glycan binding to mutated MI001 P domain; parameters: species or system human norovirus (hNoV); settings: cyt c reference; 100 µM glycan
# GII.4 Saga P dimer = GII.4 Saga P dimer (Norovirus GII.4 (human norovirus), UniProt B5BTR7); assay: Native MS, specific glycan binding to P dimer after reference protein correction; parameters: species or system human norovirus (hNoV)
# Procedure: as §1, §2
# Data from native ESI MS measurements were translated into dissociation constants (KD values). The detailed calculations were based on the equations listed below. A protein (P) and a glycan ligand (L) form a complex through non-covalent interactions leading to a reversible association described by (Equation (1)):(1) P+L⇌PL when equilibrium is reached, the KD can be calculated directly from the concentrations via the law of mass action (Equation (2)):(2) KD=[Pfree][Lfree]/[PL]
# as §3
# Using R described in Equation (3), the KD calculation can be re-written into Equation (4) with the known initial concentration of glycan ligand [L0] and protein [P0], adapted from Sun et al.:(3) R=PLequil∕Pequil=∑nA(PL^n+)∕n∕∑nA(P^n+)∕n (4) KD =L0−RP0/1+R/R […]
smiles,measurement,setting,value
"CC(=O)N[C@H]1[C@H](O[C@H]2[C@@H](O)[C@@H](CO)O[C@H](O[C@@H]3[C@H](O)[C@@H](O)[C@H](O[C@H]4[C@H](O)[C@@H](O)C(O)O[C@@H]4CO)O[C@@H]3CO)[C@@H]2O)O[C@H](CO)[C@H](O)[C@@H]1O (stereo partly drawn) [Gb4, GalNAc β1-3 Galα1-4Galβ1-4Glc]",Glycan-Clustering Ratio R,[1]; 100 µM glycan,0.35±0.04
same,Glycan-Clustering Ratio R,[1]; 200 µM glycan,0.51±0.08
same,Glycan-Clustering Ratio R,[1]; 300 µM glycan,0.68±0.02
same,Glycan-Clustering Ratio R,[1]; 400 µM glycan,0.80±0.01
same,Glycan-Clustering Ratio R,[1]; 500 µM glycan,0.91±0.06
same,corrected binding to mutated MI001 P dimer,[2],basically no binding
same,specific binding after ADH based protein clustering correction,"GII.4 Saga P dimer; Gb4: any listed glycan concentration, HBGA B: 500 µM",no specific binding
same,Bound number of carbohydrates on Saga P dimer,"GII.4 Saga P dimer; ref. protein ADH, glycan 100 µM",0
same,Bound number of carbohydrates on Saga P dimer,"GII.4 Saga P dimer; ref. protein ADH, glycan 200 µM",0
same,Bound number of carbohydrates on Saga P dimer,"GII.4 Saga P dimer; ref. protein ADH, glycan 300 µM",0
same,Bound number of carbohydrates on Saga P dimer,"GII.4 Saga P dimer; ref. protein ADH, glycan 400 µM",0
same,Bound number of carbohydrates on Saga P dimer,"GII.4 Saga P dimer; ref. protein ADH, glycan 500 µM",0
same,Bound number of carbohydrates on Saga P dimer,"GII.4 Saga P dimer; ref. protein CA, glycan 100 µM",1
same,Bound number of carbohydrates on Saga P dimer,"GII.4 Saga P dimer; ref. protein CA, glycan 200 µM",1
same,Bound number of carbohydrates on Saga P dimer,"GII.4 Saga P dimer; ref. protein CA, glycan 300 µM",2
same,Bound number of carbohydrates on Saga P dimer,"GII.4 Saga P dimer; ref. protein CA, glycan 400 µM",2
same,Bound number of carbohydrates on Saga P dimer,"GII.4 Saga P dimer; ref. protein CA, glycan 500 µM",2
same,Bound number of carbohydrates on Saga P dimer,"GII.4 Saga P dimer; ref. protein Cyto c, glycan 100 µM",1
same,Bound number of carbohydrates on Saga P dimer,"GII.4 Saga P dimer; ref. protein Cyto c, glycan 200 µM",2
same,Bound number of carbohydrates on Saga P dimer,"GII.4 Saga P dimer; ref. protein Cyto c, glycan 300 µM",3
same,Bound number of carbohydrates on Saga P dimer,"GII.4 Saga P dimer; ref. protein Cyto c, glycan 400 µM",3
same,Bound number of carbohydrates on Saga P dimer,"GII.4 Saga P dimer; ref. protein Cyto c, glycan 500 µM",4
same,Bound number of carbohydrates on Saga P dimer,"GII.4 Saga P dimer; ref. protein GFP, glycan 100 µM",2
same,Bound number of carbohydrates on Saga P dimer,"GII.4 Saga P dimer; ref. protein GFP, glycan 200 µM",2
same,Bound number of carbohydrates on Saga P dimer,"GII.4 Saga P dimer; ref. protein GFP, glycan 300 µM",2
same,Bound number of carbohydrates on Saga P dimer,"GII.4 Saga P dimer; ref. protein GFP, glycan 400 µM",2
same,Bound number of carbohydrates on Saga P dimer,"GII.4 Saga P dimer; ref. protein GFP, glycan 500 µM",2
same,Bound number of carbohydrates on Saga P dimer,"GII.4 Saga P dimer; ref. protein LDH, glycan 100 µM",0
same,Bound number of carbohydrates on Saga P dimer,"GII.4 Saga P dimer; ref. protein LDH, glycan 200 µM",0
same,Bound number of carbohydrates on Saga P dimer,"GII.4 Saga P dimer; ref. protein LDH, glycan 300 µM",0
same,Bound number of carbohydrates on Saga P dimer,"GII.4 Saga P dimer; ref. protein LDH, glycan 400 µM",0
same,Bound number of carbohydrates on Saga P dimer,"GII.4 Saga P dimer; ref. protein LDH, glycan 500 µM",1
same,Bound number of carbohydrates on Saga P dimer,"GII.4 Saga P dimer; ref. protein Myo, glycan 100 µM",2
same,Bound number of carbohydrates on Saga P dimer,"GII.4 Saga P dimer; ref. protein Myo, glycan 200 µM",3
same,Bound number of carbohydrates on Saga P dimer,"GII.4 Saga P dimer; ref. protein Myo, glycan 300 µM",3
same,Bound number of carbohydrates on Saga P dimer,"GII.4 Saga P dimer; ref. protein Myo, glycan 400 µM",3
same,Bound number of carbohydrates on Saga P dimer,"GII.4 Saga P dimer; ref. protein Myo, glycan 500 µM",4
same,Bound number of carbohydrates on Saga P dimer,"GII.4 Saga P dimer; ref. protein Ubq, glycan 100 µM",2
same,Bound number of carbohydrates on Saga P dimer,"GII.4 Saga P dimer; ref. protein Ubq, glycan 200 µM",3
same,Bound number of carbohydrates on Saga P dimer,"GII.4 Saga P dimer; ref. protein Ubq, glycan 300 µM",4
same,Bound number of carbohydrates on Saga P dimer,"GII.4 Saga P dimer; ref. protein Ubq, glycan 400 µM",4
same,Bound number of carbohydrates on Saga P dimer,"GII.4 Saga P dimer; ref. protein Ubq, glycan 500 µM",4
same,Bound number of carbohydrates on Saga P dimer,"GII.4 Saga P dimer; ref. protein apo-TFF, glycan 100 µM",0
same,Bound number of carbohydrates on Saga P dimer,"GII.4 Saga P dimer; ref. protein apo-TFF, glycan 200 µM",0
same,Bound number of carbohydrates on Saga P dimer,"GII.4 Saga P dimer; ref. protein apo-TFF, glycan 300 µM",1
same,Bound number of carbohydrates on Saga P dimer,"GII.4 Saga P dimer; ref. protein apo-TFF, glycan 400 µM",1
same,Bound number of carbohydrates on Saga P dimer,"GII.4 Saga P dimer; ref. protein apo-TFF, glycan 500 µM",1
